Source: article PMC8001783, “New Lignanamides with Antioxidant and Anti-Inflammatory Activities Screened Out and Identified from Warburgia ugandensis Combining Affinity Ultrafiltration LC-MS with SOD and XOD Enzymes” (Antioxidants, 2021)
Marks after values point to notes of the source that are not given here.

Assays:
xanthine oxidase (XOD) = test: Affinity ultrafiltration LC-MS/MS with XOD (relative binding affinity); parameters: key: -: No binding affinity; conditions: peaks of WUE-A4, XOD 2 U, 37 °C 1 h, n = 3
Method: The experimental conditions were proposed according to previous relevant studies. Briefly, the optimized experiment was composed of three steps. Incubation was the first step, where 100 μL WUE-A4 (10.0 mg/mL), 10 µL SOD (2 U) or XOD (2 U), and 90 µL Tris-HCl (pH = 7.8) were mixed well in 1.5 mL EP tubes, and then incubated at 37 °C in the dark for 1 h. Meanwhile, the incubation operations of inactivated enzymes (inactivated enzymes were obtained by heating enzymes in a 99 °C water bath for 10 min) were the same as the active enzymes. Adsorption was the second step, where the incubated solutions were transferred to ultrafiltration tubes with 30 KDa (for SOD) or 10 KDa (for XOD) ultrafiltration membranes and then centrifuged at 10,000 rpm for 10 min at 25 °C. Simultaneously, components which had no binding affinity to enzymes were washed out. Immediately, 300 µL of Tris-HCl solution (pH = 7.8) was added to the ultrafiltration tubes and centrifuged at 10,000 rpm for 5 min at 25 °C to remove the potential unbound components. Desorption was the third step, where 300 µL of 90% (v/v) MeOH-H2O was added and incubated for 10 min at room temperature, and the mixed solutions were centrifuged at 10,000 rpm for another 10 min at 25 °C. After that, the desorption process was repeated two times to release those components with specific bindings to SOD or XOD from the enzyme-ligand complexes. Finally, those ultrafiltrates were dried and reconstituted in 50 µL MeOH for the HPLC-UV/ESI-MS/MS analysis.
HPLC-UV/ESI-MS/MS was carried out to characterize the components in WUE-A4 before and after ultrafiltration by using a Thermo Accela 600 series HPLC connected with a TSQ Quantum Access MAX mass spectrometer (Thermo Fisher Scientific, San Jose, CA, USA). A Waters Symmetry RP-C18 column (4.6 × 250 mm, 5 µm) was used to perform chromatographic analysis at 30 °C, and the mobile phase consisted of H2O with 0.1% formic acid (A) and ACN (B). The optimized HPLC elution procedures were as follows: 0–15 min, 17% B; 15–40 min, 17–30% B, 40–42 min: 30–56% B. The flow rate was 0.8 mL/min, the injection volume was 10 µL, and the HPLC-UV chromatograms were detected at a wavelength of 254 nm. The negative ion modes were applied to obtained ESI-MS/MS data. Moreover, the parameters of instrument were set as follows: the vaporizer temperature was 350 °C, the capillary temperature was 250 °C, the spray voltage was 3000 V, the cone voltage energy was 40 V, the collision energy was 10 V, the sheath gas pressure was 40 psi, the aux gas pressure was 10 psi, the drying gas flow rate was 6.0 L/min, and the mass range was set from 50 to 1100 (m/z) in the full-scan mode. Finally, the Thermo Xcalibur ChemStation (Thermo Fisher Scientific) was used for data acquisition and analysis.
For further evaluation of the affinity binding strength between the potential ligands and the target enzymes, the relative binding affinity (RBA) was employed to compare the variation of the correlated peak areas in the UF-HPLC-UV chromatograms before and after activation. The RBA formula is expressed as RBA = Aactive/Ainactivated, where the Aactive and Ainactivated represent the peak areas obtained from the WUE-A4 samples with activated and inactivated SOD or XOD, respectively.

COX-2 (human) = target: T1, COX-2 (human) (Homo sapiens, UniProt P35354); test: In vitro COX-2 inhibitory assay (COX-2 (human) inhibitor screening kit); format: biochemical; conditions: for COX-2 inhibitory activity compared with the positive control indomethacin: in words, Figure 7; for IC50: fluorescence, ex 560 nm / em 590 nm, triplicate
T1 construct: purchased Beyotime Biotechnology (Shanghai, China) S0168
T1 sequence (P35354 18-604): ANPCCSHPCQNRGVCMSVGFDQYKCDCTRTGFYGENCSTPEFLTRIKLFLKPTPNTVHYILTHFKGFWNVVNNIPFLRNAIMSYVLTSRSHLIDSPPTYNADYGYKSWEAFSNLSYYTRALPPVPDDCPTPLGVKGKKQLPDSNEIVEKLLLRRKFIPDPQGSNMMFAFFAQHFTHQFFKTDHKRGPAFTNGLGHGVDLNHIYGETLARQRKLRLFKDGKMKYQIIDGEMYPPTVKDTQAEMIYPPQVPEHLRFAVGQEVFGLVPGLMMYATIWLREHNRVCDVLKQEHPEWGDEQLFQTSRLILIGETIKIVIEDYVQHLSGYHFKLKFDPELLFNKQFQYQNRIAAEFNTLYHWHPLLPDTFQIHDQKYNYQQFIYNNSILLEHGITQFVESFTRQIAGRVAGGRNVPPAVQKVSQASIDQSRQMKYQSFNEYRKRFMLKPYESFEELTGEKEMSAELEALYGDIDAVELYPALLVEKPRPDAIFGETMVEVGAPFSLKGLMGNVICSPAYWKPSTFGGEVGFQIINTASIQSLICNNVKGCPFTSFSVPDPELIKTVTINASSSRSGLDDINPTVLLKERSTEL
Method: Firstly, samples were dissolved in DMSO, and prepared into a series of solutions with different concentrations. COX-2 cofactor working solution, COX-2 working solution, COX-2 probe, and COX-2 substrate were prepared according to manufacturer’s instructions, and then diluted 10 times with COX-2 assay buffer, respectively. Secondly, 150 µL Tris-HCl (pH = 7.8), 10 µL COX-2 cofactor working solution, 10 µL COX-2 working solution, and 10 µL sample solution were sequentially added in the 96-well black plates, mixed and incubated at 37 °C for 10 min. The COX-2 working solution of the blank control group was replaced with an equal volume of COX-2 assay buffer, and the sample was replaced with an equal volume of DMSO; the sample of the 100% enzyme activity control group was replaced with an equal volume of DMSO. Thirdly, 10 µL COX-2 probe was added into each well. Finally, 10 µL of COX-2 substrate was quickly added into each well, and incubated at 37 °C in the darkness for 5 min, and followed by the fluorescence measurement. The excitation and emission wavelengths were 560 nm and 590 nm, respectively. […] The experiments were performed in triplicate. The COX-2 inhibitory activity was expressed as IC50. The inhibition of COX-2 was calculated according to the following formula:COX-2 inhibitory activity (%) = (RFU100%Enzyme − RFUSample)/ (RFU100%Enzyme − RFUBlank) × 100,(3) where COX-2 inhibitory activity (%) was plotted against the concentration of samples to acquire the IC50. RFU100%Enzyme, relative fluorescence unit of 100% enzyme control group; RFUSample, relative fluorescence unit of sample; RFUBlank, relative fluorescence unit of blank group.

| Compound | UF-RBA XOD (relative binding affinity = Aactive/Ainactivated) (xanthine oxidase (XOD)) | COX-2 inhibitory activity compared with the positive control indomethacin (COX-2 (human)) | IC50 (COX-2 (human)) [nM] | UF-RBA XOD (relative binding affinity = Aactive/Ainactivated) (xanthine oxidase (XOD); listed as peak 11) | UF-RBA XOD (relative binding affinity = Aactive/Ainactivated) (xanthine oxidase (XOD); listed as peak 14) |
| --- | --- | --- | --- | --- | --- |
| C[C@@H]1O[C@@H](O[C@@H]2[C@@H](O)[C@H](O)[C@@H](CO)O[C@H]2c2cc(-c3cc(=O)c4c(O)cc(O)cc4o3)cc(O)c2O)[C@H](O)[C@H](O)[C@H]1O [compound 1, 2-[3-[2-O-(6-deoxy-α-L-mannopyranosyl)-β-D-glucopyranosyl]-4,5-dihydroxyphenyl]-5,7-dihydroxy-4H-1-benzopyran-4-one] | 1.2 ± 0.6 ^c,d | almost the same inhibitory activities |  |  |  |
| 1-(3,4-dihydroxy-5-methoxyphenyl)-1,2-dihydroxy-7,8-dihydroxy-N-[(3,4-dihydroxyphenyl)-ethyl]-N′-[(4-hydroxyphenyl)-ethyl]-6-methoxynaphthalene-2,3-dicarboxamide [compound 11] | - | almost the same inhibitory activities |  | extremely low or no binding affinities |  |

The next lines start with the values.

| UF-RBA XOD (relative binding affinity = Aactive/Ainactivated) (xanthine oxidase (XOD)) | COX-2 inhibitory activity compared with the positive control indomethacin (COX-2 (human)) | IC50 (COX-2 (human)) [nM] | UF-RBA XOD (relative binding affinity = Aactive/Ainactivated) (xanthine oxidase (XOD); listed as peak 11) | UF-RBA XOD (relative binding affinity = Aactive/Ainactivated) (xanthine oxidase (XOD); listed as peak 14) | Compound |
| --- | --- | --- | --- | --- | --- |
| 1.3 ± 0.2 ^c,d |  | 713 ± 322 |  |  | COc1cc(C2c3c(cc(OC)c(O)c3O)C=C(C(=O)NCCc3ccc(O)cc3)C2C(=O)NCCc2ccc(O)cc2)cc(O)c1O (stereo not drawn) [compound 13] |
| 1.1 ± 0.3 ^c,d | almost the same inhibitory activities |  |  |  | O=C(/C=C/c1ccc(O)c(O)c1)NCCc1ccc(O)cc1 [compound 7, N-trans-caffeoyltyramine] |
| 3.8 ± 0.5 ^a |  | 123 ± 4 |  | 3.76 | COc1cc(C2c3c(cc(O)c(O)c3OC)C=C(C(=O)NCCc3ccc(O)cc3)C2C(=O)NCCc2ccc(O)cc2)cc(O)c1O (stereo not drawn) [compound 14] |
